Experimental data reported in ChEMBL document CHEMBL1201862, “PubChem BioAssay data set” (2004).
Calls of active or inactive are those of the source.

Tests used:
cells [1] = test: cells
[2] = cytotoxicity toward NIH3T3 fibroblasts, dose response, counter-screen, cell-based, ATP luminescence, mouse fibroblasts (AID 2010); format: functional;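 note: cells exposed to compound for about 90 hours before reading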
[3] = inhibitors of intracellular T. cruzi replication, confirmation, NIH3T3 host cells, beta-gal luminescence (AID 2044); format: functional, cell-based;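 note: intracellular parasites grown in NIH/3T3 mouse fibroblasts as host cells; luminescent beta-galactosidase reporter signal from transgenic T. cruzi replicating inside host cells; inhibitors lower the luminescence signal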
[4] = target: T1, Corticotropin-releasing factor receptor 2/Corticotropin-releasing factor-binding protein (Homo sapiens, UniProt P24387+Q13324); test: activators of CRF receptor 2 with binding protein – uHTS hits, confirmation (AID 602473); format: functional; conditions: read-out: EC50_Mean
T1 sequence (Q13324 whole entry): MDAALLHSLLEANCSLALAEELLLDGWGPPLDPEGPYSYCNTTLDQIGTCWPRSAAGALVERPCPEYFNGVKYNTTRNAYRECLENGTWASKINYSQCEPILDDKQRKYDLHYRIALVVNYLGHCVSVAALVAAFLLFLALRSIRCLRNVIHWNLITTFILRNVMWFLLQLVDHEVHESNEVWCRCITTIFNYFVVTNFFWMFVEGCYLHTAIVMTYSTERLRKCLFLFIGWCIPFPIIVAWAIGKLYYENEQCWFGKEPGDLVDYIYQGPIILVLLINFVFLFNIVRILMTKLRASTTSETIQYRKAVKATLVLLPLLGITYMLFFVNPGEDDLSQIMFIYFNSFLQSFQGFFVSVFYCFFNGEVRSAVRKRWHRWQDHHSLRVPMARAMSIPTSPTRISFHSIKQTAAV
T1 sequence (P24387 whole entry): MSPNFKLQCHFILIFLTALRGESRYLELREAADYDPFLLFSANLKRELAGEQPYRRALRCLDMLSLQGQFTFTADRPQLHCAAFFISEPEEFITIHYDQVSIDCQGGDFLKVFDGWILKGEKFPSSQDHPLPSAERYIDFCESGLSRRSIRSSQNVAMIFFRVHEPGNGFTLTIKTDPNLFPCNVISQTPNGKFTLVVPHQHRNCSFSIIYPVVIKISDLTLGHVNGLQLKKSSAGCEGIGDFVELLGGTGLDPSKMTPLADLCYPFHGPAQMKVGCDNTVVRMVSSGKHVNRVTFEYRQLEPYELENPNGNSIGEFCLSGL

[5] = target: T1, Corticotropin-releasing factor receptor 2/Corticotropin-releasing factor-binding protein; test: Dose Response confirmation of uHTS hits for small molecule antagonists of the CRF-binding protein and CRF-R2 receptor complex.; format: functional; conditions: read-out: IC50_Mean
[6] = HEp-2 cell cytotoxicity, dose response, cytotoxicity control for RSV inhibitor project, HTS (AID 2410); format: functional; conditions: human respiratory syncytial virus
Vero = test: host cell cytotoxicity of antiviral hits, dose response, cytotoxicity control for West Nile virus antiviral project, secondary assay (AID 1650); format: functional; conditions: Chlorocebus sabaeus
cells [7] = test: cells; remark: listed apart in the source
Estrogen receptor beta [8] = target: T2, Estrogen receptor beta (Homo sapiens, UniProt Q92731); test: ERβ–SRC-3 coactivator interaction inhibitors, confirmation, orthogonal assay, biochemical, ELISA, streptavidin-HRP readout (AID 1060)
Bcl-2-like protein 10 = target: T3, Bcl-2-like protein 10 (Homo sapiens, UniProt Q9HD36); test: displacers of TR3 peptide from Bcl-B, primary screen, selectivity assay for Bfl-1 inhibitor project, biochemical, fluorescence polarization, FITC-TR3 peptide (AID 748);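 note: fluorescence polarization from a fluorescein-labelled TR3 peptide binding purified Bcl-B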
T3 sequence (Q9HD36 whole entry): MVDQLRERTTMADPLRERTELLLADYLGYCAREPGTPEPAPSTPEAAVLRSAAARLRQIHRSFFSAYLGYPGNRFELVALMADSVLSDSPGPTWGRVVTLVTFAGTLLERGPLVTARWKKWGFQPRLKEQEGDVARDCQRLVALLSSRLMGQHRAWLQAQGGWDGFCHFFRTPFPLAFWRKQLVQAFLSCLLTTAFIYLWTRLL

Estrogen receptor beta [9] = target: T2, Estrogen receptor beta
Insulin-degrading enzyme = target: T4, Insulin-degrading enzyme (Homo sapiens, UniProt P14735); test: Dose Response: Fluorescence polarization-based cell-based high throughput dose response assay for inhibitors of insulin-degrading enzyme (IDE). [Related pubchem assays: 434962 (Primary screen (IDE inhibitors in singlicate)), 449730 (Counterscreen (Cytotoxicity in triplicate)), 435028 (Confirmation (IDE inhibitors in triplicate)), 434984 (Summary …; format: functional
T4 sequence (P14735 whole entry): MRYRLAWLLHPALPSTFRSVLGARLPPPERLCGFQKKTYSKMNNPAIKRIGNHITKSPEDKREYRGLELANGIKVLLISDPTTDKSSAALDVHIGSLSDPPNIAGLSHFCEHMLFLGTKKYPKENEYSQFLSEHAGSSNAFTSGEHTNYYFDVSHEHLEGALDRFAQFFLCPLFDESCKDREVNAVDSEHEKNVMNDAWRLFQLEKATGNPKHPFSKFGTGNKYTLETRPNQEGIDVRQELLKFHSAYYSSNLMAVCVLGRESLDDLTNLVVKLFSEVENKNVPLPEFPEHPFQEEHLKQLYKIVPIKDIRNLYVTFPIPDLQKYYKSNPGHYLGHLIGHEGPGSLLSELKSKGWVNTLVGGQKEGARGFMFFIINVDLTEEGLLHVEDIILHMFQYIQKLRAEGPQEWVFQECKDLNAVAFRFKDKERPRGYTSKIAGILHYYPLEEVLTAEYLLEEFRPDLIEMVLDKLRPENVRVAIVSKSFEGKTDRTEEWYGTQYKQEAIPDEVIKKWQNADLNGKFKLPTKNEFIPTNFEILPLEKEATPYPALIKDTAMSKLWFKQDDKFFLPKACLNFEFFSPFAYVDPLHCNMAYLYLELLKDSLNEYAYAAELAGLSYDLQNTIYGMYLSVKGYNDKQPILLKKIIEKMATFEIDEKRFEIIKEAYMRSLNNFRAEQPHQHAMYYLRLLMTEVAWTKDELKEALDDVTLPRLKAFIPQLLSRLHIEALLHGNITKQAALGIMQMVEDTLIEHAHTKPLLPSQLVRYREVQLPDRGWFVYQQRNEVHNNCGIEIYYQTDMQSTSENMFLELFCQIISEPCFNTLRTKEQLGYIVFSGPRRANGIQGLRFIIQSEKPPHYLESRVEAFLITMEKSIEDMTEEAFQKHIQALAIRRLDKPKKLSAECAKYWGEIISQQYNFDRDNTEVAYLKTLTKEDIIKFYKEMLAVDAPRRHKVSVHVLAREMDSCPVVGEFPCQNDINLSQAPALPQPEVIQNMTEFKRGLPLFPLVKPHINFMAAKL

[10] = Counterscreen for IDE inhibitors: Luminescence-based cell-based high throughput dose response assay to identify compounds that are cytotoxic to HEK cells. [Related pubchem assays: 434962 (Primary screen (IDE inhibitors in singlicate)), 449730 (Counterscreen (Cytotoxicity in triplicate)), 435028 (Confirmation (IDE inhibitors in triplicate)) …; format: functional; conditions: HEK293
SUMO-activating enzyme [11] = target: T5, SUMO-activating enzyme (Homo sapiens, UniProt Q9UBT2); test: SUMOylation inhibitor hit validation, confirmation, SUMOylation inhibitor project, biochemical, AlphaScreen (AID 2018); format: functional
SUMO-activating enzyme [12] = target: T5, SUMO-activating enzyme; test: inhibitors of in vitro SUMOylation cascade, primary screen, biochemical, HTRF, uHTS (AID 2006); format: protein-complex assay
Tumor necrosis factor = Tumor necrosis factor (Homo sapiens, UniProt P01375); test: TNFa-triggered NF-kB activation inhibitors, SAR follow-up, cell-based, revised (AID 2337); format: functional
[13] = target: T6, Nucleotide-binding oligomerization domain-containing protein 1 (Homo sapiens, UniProt Q9Y239); test: NOD1 signaling inhibitors, SAR follow-up, revised (AID 2333); format: functional
T6 sequence (Q9Y239 whole entry): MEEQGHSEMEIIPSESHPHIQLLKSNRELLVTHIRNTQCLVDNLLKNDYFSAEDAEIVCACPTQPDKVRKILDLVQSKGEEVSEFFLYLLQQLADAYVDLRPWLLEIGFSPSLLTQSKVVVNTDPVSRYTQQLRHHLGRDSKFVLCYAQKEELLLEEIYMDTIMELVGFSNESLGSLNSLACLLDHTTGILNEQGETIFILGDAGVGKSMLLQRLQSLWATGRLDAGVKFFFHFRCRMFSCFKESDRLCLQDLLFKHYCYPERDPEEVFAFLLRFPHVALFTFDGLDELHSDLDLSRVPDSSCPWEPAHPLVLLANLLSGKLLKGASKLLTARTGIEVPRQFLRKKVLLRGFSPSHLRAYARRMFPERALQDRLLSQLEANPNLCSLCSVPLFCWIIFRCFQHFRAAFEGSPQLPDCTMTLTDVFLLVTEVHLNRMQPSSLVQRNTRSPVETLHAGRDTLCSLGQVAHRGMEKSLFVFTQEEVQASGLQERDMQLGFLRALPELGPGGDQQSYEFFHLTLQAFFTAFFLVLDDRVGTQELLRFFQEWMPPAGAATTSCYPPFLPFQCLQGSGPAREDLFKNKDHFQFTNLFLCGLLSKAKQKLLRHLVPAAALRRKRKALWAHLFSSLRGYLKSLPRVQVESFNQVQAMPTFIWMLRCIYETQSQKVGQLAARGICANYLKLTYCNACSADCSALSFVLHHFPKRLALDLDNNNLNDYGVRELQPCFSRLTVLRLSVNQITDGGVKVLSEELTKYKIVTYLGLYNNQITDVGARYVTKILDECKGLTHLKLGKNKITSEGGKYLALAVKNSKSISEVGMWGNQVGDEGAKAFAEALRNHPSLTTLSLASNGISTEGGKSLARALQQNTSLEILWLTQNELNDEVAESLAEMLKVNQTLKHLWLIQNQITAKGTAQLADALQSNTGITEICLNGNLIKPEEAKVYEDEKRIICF

[14] = target: Nucleotide-binding oligomerization domain-containing protein 2 (Homo sapiens, UniProt Q9HC29); test: PubChem AID 2334; format: functional
HEK293 = test: cells; conditions: Homo sapiens;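 note: cells exposed to compound for 14 hours overnight before viability readout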

T5 sequence (Q9UBE0 whole entry): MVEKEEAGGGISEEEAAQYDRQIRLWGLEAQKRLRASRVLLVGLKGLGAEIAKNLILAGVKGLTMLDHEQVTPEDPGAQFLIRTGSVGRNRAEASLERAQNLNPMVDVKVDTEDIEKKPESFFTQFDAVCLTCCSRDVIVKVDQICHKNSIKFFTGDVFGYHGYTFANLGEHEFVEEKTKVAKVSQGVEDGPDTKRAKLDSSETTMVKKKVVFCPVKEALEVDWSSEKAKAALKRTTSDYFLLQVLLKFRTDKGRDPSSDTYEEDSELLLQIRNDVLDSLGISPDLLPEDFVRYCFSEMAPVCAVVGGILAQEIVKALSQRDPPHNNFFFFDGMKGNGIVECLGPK
T5 sequence (Q9UBT2 whole entry): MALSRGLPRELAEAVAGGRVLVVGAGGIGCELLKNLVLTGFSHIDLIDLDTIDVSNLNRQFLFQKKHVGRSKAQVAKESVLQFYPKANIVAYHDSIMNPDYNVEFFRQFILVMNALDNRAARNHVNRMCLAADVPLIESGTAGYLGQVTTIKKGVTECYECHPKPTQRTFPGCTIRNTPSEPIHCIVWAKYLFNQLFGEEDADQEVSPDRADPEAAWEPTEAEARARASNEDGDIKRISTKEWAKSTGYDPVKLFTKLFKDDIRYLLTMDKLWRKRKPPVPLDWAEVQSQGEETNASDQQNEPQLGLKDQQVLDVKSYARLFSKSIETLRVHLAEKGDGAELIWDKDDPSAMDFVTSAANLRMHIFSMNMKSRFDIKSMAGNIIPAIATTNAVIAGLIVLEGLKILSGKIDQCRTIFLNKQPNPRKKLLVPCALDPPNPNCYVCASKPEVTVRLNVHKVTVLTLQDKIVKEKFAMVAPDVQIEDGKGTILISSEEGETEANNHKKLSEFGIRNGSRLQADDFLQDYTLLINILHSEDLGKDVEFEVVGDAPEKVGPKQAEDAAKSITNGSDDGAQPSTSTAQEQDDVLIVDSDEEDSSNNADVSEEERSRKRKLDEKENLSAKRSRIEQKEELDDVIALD
T2 sequence (Q92731 whole entry): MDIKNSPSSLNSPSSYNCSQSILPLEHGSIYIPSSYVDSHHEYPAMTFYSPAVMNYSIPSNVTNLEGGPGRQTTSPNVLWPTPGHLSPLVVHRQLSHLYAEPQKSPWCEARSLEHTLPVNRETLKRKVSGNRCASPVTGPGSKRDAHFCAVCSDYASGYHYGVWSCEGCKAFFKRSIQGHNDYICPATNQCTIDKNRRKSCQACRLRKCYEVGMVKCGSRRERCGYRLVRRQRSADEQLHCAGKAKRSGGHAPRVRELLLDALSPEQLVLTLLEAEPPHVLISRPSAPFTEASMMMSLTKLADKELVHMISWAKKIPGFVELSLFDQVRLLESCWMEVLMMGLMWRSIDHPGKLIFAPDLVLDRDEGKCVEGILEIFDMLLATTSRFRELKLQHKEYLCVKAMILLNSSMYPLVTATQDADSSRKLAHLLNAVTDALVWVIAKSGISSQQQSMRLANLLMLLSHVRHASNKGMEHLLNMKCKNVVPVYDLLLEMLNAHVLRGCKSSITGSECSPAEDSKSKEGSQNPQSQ
Chain of Tumor necrosis factor (P01375 whole entry, the tested form may be a part): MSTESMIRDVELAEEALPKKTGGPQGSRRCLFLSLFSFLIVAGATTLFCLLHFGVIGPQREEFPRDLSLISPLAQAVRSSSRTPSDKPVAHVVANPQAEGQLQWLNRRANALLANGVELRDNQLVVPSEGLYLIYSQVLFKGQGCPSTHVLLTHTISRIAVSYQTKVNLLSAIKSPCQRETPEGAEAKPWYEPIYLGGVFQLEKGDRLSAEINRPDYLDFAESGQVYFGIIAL
Chain of Nucleotide-binding oligomerization domain-containing protein 2 (Q9HC29 whole entry, the tested form may be a part): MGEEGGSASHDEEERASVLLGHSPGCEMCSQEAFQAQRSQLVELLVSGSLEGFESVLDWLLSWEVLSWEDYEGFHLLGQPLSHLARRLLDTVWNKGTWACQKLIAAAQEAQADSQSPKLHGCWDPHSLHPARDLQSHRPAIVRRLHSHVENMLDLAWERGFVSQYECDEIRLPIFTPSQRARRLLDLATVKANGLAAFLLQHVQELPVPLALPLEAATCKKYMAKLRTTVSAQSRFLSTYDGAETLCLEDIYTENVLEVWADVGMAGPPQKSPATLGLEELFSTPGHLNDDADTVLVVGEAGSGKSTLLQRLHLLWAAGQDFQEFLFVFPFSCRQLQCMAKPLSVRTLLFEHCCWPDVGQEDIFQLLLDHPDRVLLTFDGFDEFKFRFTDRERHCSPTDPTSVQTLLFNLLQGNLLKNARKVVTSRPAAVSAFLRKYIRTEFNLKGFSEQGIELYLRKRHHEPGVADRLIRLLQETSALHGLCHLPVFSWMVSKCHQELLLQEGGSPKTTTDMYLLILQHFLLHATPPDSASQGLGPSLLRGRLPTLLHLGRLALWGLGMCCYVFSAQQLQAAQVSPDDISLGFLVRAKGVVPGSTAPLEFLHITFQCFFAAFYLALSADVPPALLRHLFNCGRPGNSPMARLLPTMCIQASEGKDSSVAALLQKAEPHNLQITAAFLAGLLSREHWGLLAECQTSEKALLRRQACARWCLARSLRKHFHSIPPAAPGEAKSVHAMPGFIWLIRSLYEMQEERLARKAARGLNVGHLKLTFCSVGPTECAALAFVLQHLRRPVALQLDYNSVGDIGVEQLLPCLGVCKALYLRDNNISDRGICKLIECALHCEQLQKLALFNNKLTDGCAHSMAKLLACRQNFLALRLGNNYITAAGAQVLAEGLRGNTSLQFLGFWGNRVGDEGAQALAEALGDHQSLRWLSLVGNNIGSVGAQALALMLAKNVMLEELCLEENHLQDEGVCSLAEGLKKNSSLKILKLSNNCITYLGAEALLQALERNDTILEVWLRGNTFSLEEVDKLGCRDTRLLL

For `CCc1c(C)c(C#N)c2nc3ccccc3n2c1NCCN(C)C`, the EC50 (cells [1]) was 0.014 µM (active), the EC50 [2] was > 30 µM (not active) and the EC50 [3] was < 0.1 µM (active).
For `Cc1cc(=O)oc2c1ccc1oc(/C(=N/O)c3ccccc3)c(C)c12`, the EC50 [4] was > 53 µM (inactive), the IC50 [5] was 24.5 µM (active) and the CC50 [6] was < 0.1 µM (active). For the same compound, the CC50 (Vero) was 18.1 µM (active) and the IC50 (cells [7]) was 18.3 µM (active).
For `CCS(=O)(=O)N1Cc2ccccc2CC1C(=O)N1CCN(c2cccc(C)c2C)CC1` (centres undefined), the IC50 (Estrogen receptor beta [8]) was 2.96 µM (not active), the IC50 (Bcl-2-like protein 10) was 80 µM (inactive) and the IC50 (Estrogen receptor beta [9]) was > 50 µM (not active).
In the case of `Cc1cccc(C(=O)Nc2ccnc(-c3ccncc3)n2)c1`, the IC50 (Insulin-degrading enzyme) is reported as 7.39 µM (active) and the IC50 [10] is reported as 22.9 µM (not active).
With `O=C(O)c1ccc2c(c1)C1C(Cl)C(Sc3ccccc3[N+](=O)[O-])CC1C(c1cccc([N+](=O)[O-])c1)N2` (centres undefined) the IC50 (SUMO-activating enzyme [11]) was 2.26 µM (active) and the IC50 (SUMO-activating enzyme [12]) was 23.6 µM (active).
In the case of `COC(=O)c1c(NC(=O)c2cccc(F)c2)sc2c1CCC(C)C2` (centres undefined), the IC50 (Tumor necrosis factor) is reported as > 20 µM (inactive), the IC50 [13] is reported as > 20 µM (inactive) and the IC50 [14] is reported as > 20 µM (inactive). For the same compound, the IC50 (HEK293) was > 20 µM (inactive).
